Laboratory results: US20230219957A1, “SMALL MOLECULE CB002-ANALOGES RESTORE THE P53 PATHWAY AND TARGET S-PHASE CHECKPOINT” (Brown University, priority 2020, published 2023)

Assays:
SW480 colon cancer cells [1] = test: Immunoblot of cell cycle markers; assay type: cell-based, human; settings: synchronized SW480
Protocol: Immunoblotting (additional method). After treatment, floating cells were collected, and adherent cells were trypsinized, washed with phosphate-buffered saline, and lysed with RIPA buffer (Sigma-Aldrich, St. Louis, Mo., USA) for thirty minutes to one hour at 4° C. Protein lysates were pelleted. The supernatant was collected. Total protein per sample was determined using a Pierce™ BCA Protein Assay Kit (Thermo Fisher Scientific, Waltham, Mass., USA). Proteins were denatured using 1× NuPAGE® LDS sample buffer (Thermo Fisher Scientific, Waltham, Mass., USA) and reduced with 2-mercaptoethanol (Sigma-Aldrich, St. Louis, Mo., USA). Protein lysates were boiled for fifteen min at 95° C. After protein normalization, samples were loaded into NuPAGE™ Novex™ 4-12% Bis-Tris Protein Gels (Thermo Fisher Scientific, Waltham, Mass., USA). Gel electrophoresis was performed with NuPAGE™ MES SDS Running Buffer. Proteins were transferred onto an Immobilon-P membrane (PVDF, EMD Millipore, Taunton, Mass., USA) using a Bio-Rad system with a 10% Tris-Glycine and 10% methanol transfer buffer diluted in distilled and deionized water. Membranes were blocked with 10% milk in Tris-buffered saline with Tween 20 (TBST) solution. The membranes were incubated overnight with the primary antibody, washed with TBST, and incubated with secondary antibody for one hour. Primary antibody incubations were performed in 5% milk or 5% bovine serum albumin in TBST solution as per manufacturer instructions. Signal was detected using a chemiluminescent detection kit, followed by autoradiography. The following antibodies were used: p53 (1:1000, #sc-126, Santa Cruz Biotechnology, Santa Cruz, Calif., USA), p73 (1:1000, #A300-126A, Bethyl Laboratories), Noxa (1:250, #OP180, EMD Millipore, Taunton, Mass., USA), DR5 (#3696), cleaved PARP (#9546), phospho-RPA32/RPA2 (#54762), p-cdc2 (#9111), p-cdc25c, pH3 (#3377) (1:1,000; Cell Signaling Technology, Inc., Danvers, Mass. USA) and β-actin (1:10000, A5441, Sigma).
(§1) Cell synchronization. Synchronized cells were synchronized by double thymidine block. Cells were treated with […] thymidine for sixteen hours. The drug was removed and replaced by complete growth media for eight hours. Cells were treated for the second time with […] thymidine for sixteen hours. At this point, cells were treated and harvested.

SW480 colon cancer cells [2] = test: Propidium iodide / BrdU cell cycle analysis of synchronized cells; assay type: cell-based, human; settings: all time points, versus DMSO vehicle control
Protocol: as §1
Propidium iodide and BrdU flow cytometry assay. Cells were seeded at a density of 5×10^5 in a 6-well plate and treated for forty-eight to seventy-two hours. After treatment, floating cells were collected, and adherent cells were trypsinized, pelleted, washed with phosphate-buffered saline, and fixed in 70% ethanol overnight. For propidium iodide (PI) based Sub-G1 apoptosis analysis, cells were spun down after fixation and resuspended in phosphate-citric acid buffer (0.2M Na2HPO4+0.1M Citric Acid, pH 7.8) at room temperature for five minutes. The cell pellet was resuspended for staining with 50 μg/mL PI and 250 μg/mL ribonuclease (RNase A). For BrdU analysis, after cell fixation, cells were spun down and resuspended in one mL of 2N HCL with 0.5% Triton X-100 for thirty minutes at room temperature. Cells were pelleted, washed with phosphate-buffered saline, and resuspended in 20 μL BrdU antibody (BD Biosciences, cat no. 347580) diluted in 0.5% Tween 20/PBS/5% bovine serum albumin for thirty minutes at room temperature. Cells were then spun down and resuspended in 140 μg/mL goat-anti mouse Alexa Fluor 488 (#A-11008, Thermo Fisher Scientific, Waltham, Mass., USA) in 0.5% Tween 20 in phosphate-buffered saline/5% bovine serum albumin for thirty minutes at room temperature. Cells were then spun down and resuspended in 5 μg/mL PI: 250 μg/mL RNase A solution. Samples were analyzed on an Epics Elite Epics flow cytometer (Coulter-Beckman).
BrdU analysis gating. Cell aggregates were gated out in the PI Peak vs DNA PI histogram. BrdU lower limit intensity was set on the upper limit of the negative control. The no BrdU antibody assays and no goat-anti mouse Alexa Fluor 488 antibody assays were the negative controls. […] Gating was held constant throughout the samples within a given assay.

COc1cc([C@@H]2c3cc4c(cc3[C@@H](O[C@@H]3O[C@@H]5CO[C@@H](C)O[C@H]5[C@H](O)[C@H]3O)[C@H]3COC(=O)[C@H]23)OCO4)cc(OC)c1O [etoposide, reference compound]
pcdc2(Tyr15) and pcdc25c(Ser16) protein expression (SW480 colon cancer cells [1]; single agent): enhances protein expression

Cn1c(=O)c2c(ncn2C)n(C)c1=O [caffeine, reference compound]
S-phase population (SW480 colon cancer cells [2]): comparable to the dimethyl sulfoxide vehicle control
pcdc2(Tyr15) and pcdc25c(Ser16) expression (SW480 colon cancer cells [1]; combination with etoposide): decreased expression
